One data set has as its system DBA/2 mice. Briefly: In vivo anticonvulsant activity in the DBA/2 mouse model (mouse audiogenic assay). As to conditions: 30 minutes before auditory stimulus, inhibition relative to vehicle. As for the experimental part:
As discussed above, preferred compounds of the invention in a standard anticonvulsant in vivo audiogenic test, such as the audiogenic mouse assay of Example 48 which follows, where DBA/2 mice about 20-23 days old are injected intraperitoneally with a test compound 30 minutes prior to being placed in a bell jar with exposure to auditory stimulus of 12 KHz sine wave at 110-120 db. References herein in vivo “audiogenic assay” are intended to refer to that protocol. […] As discussed above, activity in the audiogenic assay has been recognized as indicative that a test compound has neuroprotective properties. See, e.g., M. Tricklebank et al., European Journal of Pharmacology, supra; T. Seyfried, Federation Proceedings, supra.
In vivo Anticonvulsant Activity in the DBA/2 Mouse Model (Mouse Audiogenic Assay)
Compounds were tested for their effectiveness in preventing seizures in DBA/2 mice which have a unique sensitivity to auditory stimulation. Exposure to loud high-frequency sounds can trigger seizure activity in these animals. This sensitivity develops from postnatal day 12 and peaks around day 21 and slowly diminishes as the animals mature. The unusual response to auditory stimulation in this strain of mouse is believed to be due to a combination of early myelination (causing an unusually low excitatory threshold) and delayed development of inhibitory mechanisms.
Mice were injected intraperitoneally with the compound specified in Table I below or with vehicle control, 30 minutes prior to being placed in a bell jar and turning on the auditory stimulus (12 KHz sine wave at 110-120 db). Administered doses are specified in Table I as milligram of compound per kilogram bodyweight of mouse. The auditory stimulus was left on for 60 seconds and mice reactions were timed and recorded. “FB” refers to free base.

A further data set deals with mouse audiogenic tests. As to conditions: in vivo; cited from earlier work.
The test system of another data set is in vivo models of stroke. Conditions: cited from earlier work.
For data set [1] the following is noted: in vivo; cited from earlier work.

Where a name gives a salt, the structure may show the parent alone.

The term melting point denotes the temperature, or range, at which the solid turns liquid. `N=C(Nc1cc(Br)ccc1Br)N1CCCc2ccc(C(F)(F)F)cc21` (as salt: hydrochloride) [Example 35, N-(2,5-dibromophenyl)-(7-trifluoromethyl-1,2,3,4-tetrahydroquinolinyl)carboximidamide Hydrochloride] registered a melting point of 201 to 202 °C.
The compound `N=C(N)N1Cc2ccccc2CCc2ccccc21` (as salt: hydrochloride) [Example 41, 5,6,11,12-tetrahydrodibenz[b,f]azocin-carboximidanmide.hydrochloride] had a melting point of 238 to 240 °C.
With `N=C(Nc1cccc2ccccc12)N1CCc2ccccc21` [Example 2, N-(1-Naphthyl)-1-indolinylcarboximidamide], the “Audiogenic Response % Inhib.” value stood at 82% with DBA/2 mice (dose 2 mg/kg i.p.) and 100% in the data set on DBA/2 mice (dose 10 mg/kg i.p.).
With `CS(=O)(=O)O.N=C(Nc1ccc(OCc2ccccc2)cc1)N1CCc2ccccc21` [Example 4, N-(4-Benzyloxyphenyl)-1-indolinylcarboximidamide.mesylate], in the data set with DBA/2 mice (dose 20 mg/kg i.p.), the “Audiogenic Response % Inhib.” value is reported as 32%.
Regarding `COc1ccc(NC(=N)N2CCc3ccccc32)c2ccccc12.CS(=O)(=O)O` [Example 5, N-(4-Methoxynaphthyl)-1-indolinylcarboxidamide.mesylate], the “Audiogenic Response % Inhib.” value amounted to 50% in the data set on DBA/2 mice (dose 5 mg/kg i.p.), 68% in the data set on DBA/2 mice (dose 10 mg/kg i.p.) and 87% in the data set on DBA/2 mice (dose 20 mg/kg i.p.).
As to `N=C(Nc1ccc(Cl)c(Cl)c1)N1CCc2ccccc21` [Example 6, N-(3,4-Dichlorophenyl)-1-indolinylcarboximidamide], the figures for the “Audiogenic Response % Inhib.” value in the data set with DBA/2 mice (dose 10 mg/kg i.p.) and with DBA/2 mice (dose 20 mg/kg i.p.) were 41% and 83%, respectively.
Consider `CCc1cccc2c1N(C(=N)Nc1cccc3ccccc13)CC2` [Example 9, N-(1-Naphthyl)-1-(7-ethyl)-indolinylcarboximidaide], for which, in the data set with DBA/2 mice (dose 20 mg/kg i.p.), the “Audiogenic Response % Inhib.” value is given as 28%.
Turning to `Cl.N=C(Nc1cccc(Cl)c1Cl)N1CCc2ccccc21` [Example 11, N-(2,3-dichiorophenyl)-1-indolinylcarboximidamide.HCl], in the data set with DBA/2 mice (dose 10 mg/kg i.p.), the “Audiogenic Response % Inhib.” value turned out to be 55%.
In the case of `Cc1cccc(NC(=N)N2CCc3ccccc32)c1C.Cl` [Example 12, N-(2,3-dimethylphenyl)-1-indolinylcarboximidamide.HCl], the entries for the “Audiogenic Response % Inhib.” value in the data set with DBA/2 mice (dose 2 mg/kg i.p.), in the data set with DBA/2 mice (dose 5 mg/kg i.p.) and in the data set on DBA/2 mice (dose 10 mg/kg i.p.) were 23%, 67% and 88%, respectively.
Consider `Cl.N=C(Nc1cccc2c1CCCC2)N1CCc2ccccc21` [Example 13, N-(5,6,7,8-tetrahydro-1-naphthyl)-1-indolinylcarboximidamide.HCl], for which the “Audiogenic Response % Inhib.” value was 48% in the data set on DBA/2 mice (dose 10 mg/kg i.p.) and 80% with DBA/2 mice (dose 20 mg/kg i.p.).
On to `CCc1ccc(Cl)c(NC(=N)N2CCCc3ccc(C(F)(F)F)cc32)c1.Cl` [Example 19, N-(2-chloro-5-ethylphenyl)-[(7-trifluoromethyl)-1,2,3,4-tetrahydroquinolinyl]carboximidamiide.HCl], for which the “Audiogenic Response % Inhib.” value in the data set with DBA/2 mice (dose 10 mg/kg i.p.) turned out to be 44%; with DBA/2 mice (dose 20 mg/kg i.p.), 91%.
On to `Cl.N=C(Nc1cccc2ccccc12)N1CCCc2ccc(C(F)(F)F)cc21` [Example 20], for which, in the data set on DBA/2 mice (dose 4 mg/kg i.p.), the “Audiogenic Response % Inhib.” value is 13%.
`Cl.N=C(Nc1cccc2ccccc12)N1CCCc2ccccc21` [Example 21, N-(1-naphthyl)-(1,2,3,4-tetrahydroquinolinyl)carboximidamide.HCl]: the “Audiogenic Response % Inhib.” value in the data set with DBA/2 mice (dose 1 mg/kg i.p.) is given as 13%; in the data set on DBA/2 mice (dose 2 mg/kg i.p.), 62%; in the data set on DBA/2 mice (dose 4 mg/kg i.p.), 88%.
`Cl.N=C(Nc1cccc(-c2ccccc2)c1)N1Cc2cccc3cccc1c23` [Example 22, N-(3-biphenyl)-1-(benz[cd]indolinyl)carboximdamide.HCl]: the “Audiogenic Response % Inhib.” value in the data set on DBA/2 mice (dose 10 mg/kg i.p.) worked out at 23%.
`Cc1ccccc1NC(=N)N1Cc2cccc3cccc1c23.Cl` [Example 23, N-(2-tolyl)-1-(benz[cd]indolinyl)carboximidamnide.HCl]: the “Audiogenic Response % Inhib.” value with DBA/2 mice (dose 1 mg/kg i.p.) was found to be 53%; in the data set with DBA/2 mice (dose 2 mg/kg i.p.), 61%; in the data set with DBA/2 mice (dose 4 mg/kg i.p.), 95%.
As for `Cc1ccc(C)c(NC(=N)N2Cc3cccc4cccc2c34)c1.Cl` [Example 25, N-(2,5-dimethylphenyl)-1-benz[cd]indolinylcarboximidamide.HCl], the results for the “Audiogenic Response % Inhib.” value with DBA/2 mice (dose 5 mg/kg i.p.) and with DBA/2 mice (dose 10 mg/kg i.p.) were 59% and 76%, respectively.
`Cc1ccc2c(c1)CCCN2C(=N)Nc1cccc2ccccc12.Cl` [Example 33, N-(1-naphthyl)-(6-methyl-1,2,3,4-tetrahydroquinolinyl)carboximidamide Hydrochloride]: the “Audiogenic Response % Inhib.” value with DBA/2 mice (dose 4 mg/kg i.p.) came to 62%.
In the case of `C[C@]12N[C@H](Cc3ccccc31)c1ccccc12` [MK-801], the “activity in mouse audiogenic tests” value with mouse audiogenic tests was “good activity”. Also, in the data set on in vivo models of stroke, the “results in in vivo models of stroke” value is on record as “good results”. The toxicity entry in data set [1] is listed as “has shown toxicity”.
Take `N=C(Nc1cccc2ccccc12)N1CCc2ccccc2C1` [N-(1-naphthyl)-1,2,3,4-tetrahydroisoquinolinyl)carboximidamide]: the “Audiogenic Response % Inhib.” value in the data set on DBA/2 mice (dose 20 mg/kg i.p.) was found to be 41%.
Same read-out and setting: to “N-(2-biphenyl)-1-indolinylcarboximidamide.HCl [Example 14]” belongs 56%; to “N-(5-Acenaphthyl)-1-(5-bromo)-indolinylcarboximidamide [Example 8]”, 11%.
For “N-(5-Acenaphthyl)-1-(5-methoxy)-1-indolinylcarboximidamide.HCl [Example 7]”, in the data set with DBA/2 mice (dose 10 mg/kg i.p.), the “Audiogenic Response % Inhib.” value was determined as 21%.

Values taken from patent publication US6358993B1, “Pharmaceutically active nitrogen ring compounds and methods of use thereof” (CeNes Pharmaceuticals, Inc., priority 1996, dated 2002).
